# Source: ChEMBL document CHEMBL4376803, “Recent Advances in the Exploration of Therapeutic Analogues of Gramicidin S, an Old but Still Potent Antimicrobial Peptide” (J Med Chem, 2019)
# Experiments:
# Erythrocyte [1] = assay: Hemolytic activity against RBC (unknown origin) at 100 ul after 4 hrs; format: ADME, cell-based; conditions: erythrocyte, 4 h
# [2] = Therapeutic index, ratio of HC90 for hemolytic activity in human erythrocytes to MIC against Escherichia coli ATCC 25922; format: toxicity, cell-based; conditions: read-out: TI
# Escherichia coli [3] = assay: Antibacterial activity against Escherichia coli ATCC 25922 after 22 hrs by double dilution method; format: functional; conditions: ATCC 25922, 22 h
# [4] = system: Staphylococcus epidermidis; assay: Antibacterial activity against Staphylococcus epidermidis ATCC 12228 after 22 hrs by double dilution method; format: functional; conditions: ATCC 12228, 22 h
# Pseudomonas aeruginosa [5] = assay: Antibacterial activity against Pseudomonas aeruginosa ATCC 27853 after 22 hrs by double dilution method; format: functional; conditions: ATCC 27853, 22 h
# Erythrocyte [6] = assay: Haemolytic activity in human RBC after 30 mins by spectrophotometric analysis; format: ADME, cell-based; conditions: 0.5 h
# [7] = Therapeutic index, ratio of HC90 for hemolytic activity in human erythrocytes to MIC against Staphylococcus aureus ATCC 25923; format: toxicity, cell-based; conditions: read-out: TI
# [8] = Therapeutic index, ratio of HC90 for hemolytic activity in human erythrocytes to MIC against Pseudomonas aeruginosa ATCC 27853; format: toxicity, cell-based; conditions: read-out: TI
# Staphylococcus aureus [9] = assay: Antibacterial activity against Staphylococcus aureus ATCC 25923 after 22 hrs by double dilution method; format: functional; conditions: ATCC 25923, 22 h
# Enterococcus faecalis [10] = assay: Antibacterial activity against Enterococcus faecalis ATCC 29212 after 22 hrs by double dilution method; format: functional; conditions: ATCC 29212, 22 h
# [11] = Therapeutic index, ratio of HC90 for hemolytic activity in human erythrocytes to MIC against Enterococcus faecalis ATCC 29212; format: toxicity, cell-based; conditions: read-out: TI
# [12] = Therapeutic index, ratio of HC90 for hemolytic activity in human erythrocytes to MIC against Staphylococcus epidermidis ATCC 12228; format: toxicity, cell-based; conditions: read-out: TI
# Escherichia coli [13] = assay: Antibacterial activity against Escherichia coli ATCC 25922 after overnight incubation; format: functional
# Staphylococcus aureus [14] = assay: Antibacterial activity against Staphylococcus aureus ATCC 29213 after overnight incubation; format: functional
# Bacillus cereus = assay: Antibacterial activity against Bacillus cereus ATCC 11778 after overnight incubation; format: functional
# Pseudomonas aeruginosa [15] = assay: Antibacterial activity against Pseudomonas aeruginosa ATCC 27853 after overnight incubation; format: functional
# [16] = system: Staphylococcus epidermidis; assay: Antibacterial activity against Staphylococcus epidermidis ATCC 12228 after overnight incubation; format: functional
# Enterococcus faecalis [17] = assay: Antibacterial activity against Enterococcus faecalis ATCC 29212 after overnight incubation; format: functional
compound,measurement,setting,value
CC(C)C[C@@H]1NC(=O)[C@H](CCCN)NC(=O)[C@H](C(C)C)NC(=O)[C@@H]2CCCN2C(=O)[C@@H](Cc2ccccc2)NC(=O)[C@H](CC(C)C)NC(=O)[C@H](CCCN)NC(=O)[C@H](C(C)C)NC(=O)[C@H]2CC[C@H](OCc3ccccc3)[C@@H](CNC1=O)O2,HD100,Erythrocyte [1],500 µg/mL
CCCCCCCC[C@H]1CC2C(C1)[C@@H]1SC[C@H]3C(=O)N[C@@H](C(C)C)C(=O)N[C@@H](CCCN)C(=O)N[C@@H](CC(C)C)C(=O)N[C@H](Cc4ccccc4)C(=O)N4CCC[C@H]4C(=O)N[C@@H](C(C)C)C(=O)N[C@H](CCCN)C(=O)N[C@@H](CC(C)C)C(=O)N[C@H]2C(=O)N31 (stereo partly drawn),selectivity ratio,[2],0.59
same,MIC,Escherichia coli [3],64 µg/mL
same,MIC,[4],4 µg/mL
same,MIC,Pseudomonas aeruginosa [5],128 µg/mL
same,HC90,Erythrocyte [6],38 µg/mL
same,selectivity ratio,[7],9.5
same,selectivity ratio,[8],0.3
same,MIC,Staphylococcus aureus [9],4 µg/mL
same,MIC,Enterococcus faecalis [10],8 µg/mL
same,selectivity ratio,[11],4.75
same,selectivity ratio,[12],9.5
CC(C)C[C@@H]1NC(=O)[C@H](CCCN)NC(=O)[C@H](C(C)C)NC(=O)[C@@H]2CCCN2C(=O)[C@@H](Cc2ccccc2)NC(=O)[C@H](CC(C)C)NC(=O)[C@H](CCCN)NC(=O)[C@H](C(C)C)NC(=O)[C@@H]2O[C@H](CNC1=O)[C@@H](OCc1ccc3ccccc3c1)[C@@H]2O,MIC,Escherichia coli [13],> 64 µg/mL
same,MIC,Staphylococcus aureus [14],4 to 8 µg/mL
same,MIC,Bacillus cereus,4 µg/mL
same,MIC,Pseudomonas aeruginosa [15],> 64 µg/mL
same,MIC,[16],2 µg/mL
same,MIC,Enterococcus faecalis [17],8 µg/mL
